Laboratory results: patent US10940139B2, “Compounds that interact with the Ras superfamily for the treatment of cancers, inflammatory diseases, rasopathies, and fibrotic disease” (Shy Therapeutics LLC, priority 2017, dated 2021)
Where two headings read alike, the source gives them in different places.

How the values were obtained:
Assay in all cases: Ras GTP binding domain inhibition assay (labeled GTP)
[1] = molecular target: KRas G12C/Q61H double mutant (Homo sapiens (Human), UniProt P01116, G12C/Q61H); conditions: 20 μM compound
Sequence of KRas G12C/Q61H double mutant (P01116-2 other isoform, or with tags, fused parts or gaps G12C/Q61H): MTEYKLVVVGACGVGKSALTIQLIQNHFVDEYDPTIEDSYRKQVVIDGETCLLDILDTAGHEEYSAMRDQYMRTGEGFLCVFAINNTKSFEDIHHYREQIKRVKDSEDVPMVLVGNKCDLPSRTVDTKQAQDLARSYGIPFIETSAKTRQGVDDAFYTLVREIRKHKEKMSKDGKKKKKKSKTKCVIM
Summary of the method: (§1)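 Ni-plate capture of His-KRas (3-10 μg/ml, o/n, 4° C); Tris pH 7.5/MgCl2/DTT buffer, 1% DMSO. Cpd 20 μM or titration, 3 h RT. Cy3/Cy5-GTP 45 min RT, wash, fluorescence of bound GTP.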

[2] = molecular target: KRas G12D/Q61H double mutant (Homo sapiens (Human), UniProt P01116, G12D/Q61H); conditions: for inhibition at 20 µM: 20 μM compound; for IC50: serial dilution, read-out: KRas G12D Q61H (classes E-H, IC50)
Sequence of KRas G12D/Q61H double mutant (P01116-2 other isoform, or with tags, fused parts or gaps G12D/Q61H): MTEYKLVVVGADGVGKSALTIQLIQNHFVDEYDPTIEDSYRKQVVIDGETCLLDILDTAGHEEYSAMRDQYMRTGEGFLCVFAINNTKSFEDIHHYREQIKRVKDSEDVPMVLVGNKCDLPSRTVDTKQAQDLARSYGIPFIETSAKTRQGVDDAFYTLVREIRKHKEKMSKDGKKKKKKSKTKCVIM
Summary of the method: as §1

KRas Q61H mutant = KRas Q61H mutant (Homo sapiens (Human), UniProt P01116, Q61H); conditions: 20 μM compound
Sequence of KRas Q61H mutant (P01116-2 other isoform, or with tags, fused parts or gaps Q61H): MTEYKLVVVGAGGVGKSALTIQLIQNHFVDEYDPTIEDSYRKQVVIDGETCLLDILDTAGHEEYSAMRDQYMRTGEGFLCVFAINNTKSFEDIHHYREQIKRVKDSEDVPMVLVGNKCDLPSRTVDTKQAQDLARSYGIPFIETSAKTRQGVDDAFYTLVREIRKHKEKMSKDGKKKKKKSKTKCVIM
Summary of the method: as §1

[3] = read-out: % Inhibition at 20 μM KRas G12C Q61H
[4] = read-out: % Inhibition at 20 μM KRas G12D Q61H
[5] = read-out: % Inhibition at 20 μM KRas Q61H
[6] = KRas G12C/Q61H double mutant, read-out: % Inhibition at 20 μM of K-Ras mutant and wild-type protein, KRas G12C Q61H
[7] = KRas G12D/Q61H double mutant, read-out: % Inhibition at 20 μM of K-Ras mutant and wild-type protein, KRas G12D Q61H
[8] = KRas Q61H, read-out: % Inhibition at 20 μM of K-Ras mutant and wild-type protein, KRas Q61H

Row | SMILES | inhibition at 20 µM [1, 3] [%] | inhibition at 20 µM [2, 4] [%] | inhibition at 20 µM (KRas Q61H mutant; [5]) [%] | inhibition at 20 µM [1, 6] [%] | inhibition at 20 µM [2, 7] [%] | inhibition at 20 µM (KRas Q61H mutant; [8]) [%] | IC50 [2] [µM]
1 | COc1ccc2c(c1)CCC2C(=O)Nc1ccnc(-c2ccccn2)n1 (centres unmarked) [drawing 2795] | 1 to 25 | 1 to 25 | 25 to 50 |  |  |  | 
2 | CC(C)(C(=O)Nc1nc(-c2ccccn2)nc2sccc12)c1ccc(C#N)cc1 [drawing 2752] | 1 to 25 | 0 | 1 to 25 |  |  |  | 
3 | Cc1c(C(=O)N2CCN(c3ccccc3)CC2)sc2c(O)nc(-c3ccccn3)nc12 [drawing 3483] |  |  |  | 51 to 75 | 51 to 75 | 51 to 75 | 
4 | COc1cnc(CNC(=O)c2csc3c(O)nc(-c4ccccn4)nc23)[nH]c1=O [drawing 3520] |  |  |  | 25 to 50 | 1 to 25 | 0 | 
5 | Cc1cncc(-c2csc3c(O)nc(-c4ccccn4)nc23)c1 [drawing 3467] |  |  |  | 25 to 50 | 25 to 50 | 25 to 50 | 
6 | Cc1ccc(-c2csc3c(O)nc(-c4ccccn4)nc23)cc1 [drawing 3560] |  |  |  | 1 to 25 | 1 to 25 | 1 to 25 | 
7 | O=C(NCCc1cccnc1)c1cc2nc(-c3ccccn3)nc(O)c2s1 [drawing 2843] | 51 to 75 | 25 to 50 | 51 to 75 |  |  |  | 
8 | O=C(c1csc2c(O)nc(-c3ccccn3)nc12)N1CCN(Cc2ccc(O)c(Cl)c2)CC1 [drawing 2765] | 76 to 100 | 25 to 50 | 76 to 100 |  |  |  | 
9 | Oc1nc(-c2ccccn2)nc2c(-c3ccccc3)c(-c3ccncc3)sc12 [drawing 3548] |  |  |  | 0 | 0 | 51 to 75 | 
10 | COc1cc(N2CCN(C(=O)c3csc4c(O)nc(-c5ccccn5)nc34)CC2)cc(OC)c1OC [drawing 2758] | 1 to 25 | 0 | 25 to 50 |  |  |  | 
11 | O=C(NCCc1cncnc1)c1csc2nc(-c3ccccn3)nc(N3CCOCC3)c12 [drawing 2784] | 25 to 50 | 1 to 25 | 25 to 50 |  |  |  | 
12 | Oc1nc(-c2ccccn2)nc2c(CC3CCCNC3)csc12 (centres unmarked) [drawing 3488] |  |  |  | 51 to 75 | 25 to 50 | 51 to 75 | 
13 | Nc1nc(O)c2sc(-c3cccc(C(=O)NC4CCNC4=O)c3)cc2n1 (centres unmarked) [drawing 3542] |  |  |  | 1 to 25 | 1 to 25 | 0 | 
14 | Cc1sc2c(N)nc(-c3ccccn3)nc2c1Br [drawing 2893] | 25 to 50 | 25 to 50 | 1 to 25 |  |  |  | 
15 | COCCCCN(C)C(=O)c1csc2nc(-c3ccccn3)nc(N3CCOCC3)c12 [drawing 2790] | 25 to 50 | 1 to 25 | 51 to 75 |  |  |  | 
16 | COc1cc(C)c(-c2csc3c(O)nc(-c4ccccn4)nc23)cc1C [drawing 2869] | 1 to 25 | 25 to 50 | 1 to 25 |  |  |  | 
17 | Nc1nc(-c2ccccn2)nc(C(=O)NCCc2ccncc2)c1Oc1ccccc1 [drawing 3551] |  |  |  | 1 to 25 | 25 to 50 | 25 to 50 | 
18 | Oc1nc(-c2ccccn2)nc2cc(-c3ccc(-c4ccccc4)cc3)sc12 [drawing 3559] |  |  |  | 1 to 25 | 1 to 25 | 1 to 25 | 
19 | O=C(c1csc2c(O)nc(-c3ccccn3)nc12)N1CCN(c2ccc(O)c(Cl)c2)CC1 [drawing 2803] | 51 to 75 | 51 to 75 | 51 to 75 |  |  |  | 11 to 30
20 | Nc1nc(O)c2sc(-c3cccc(C(=O)NCc4cccc(O)n4)c3)cc2n1 [drawing 3546] |  |  |  | 1 to 25 | 0 | 0 | 

Row | SMILES | inhibition at 20 µM [1, 3] [%] | inhibition at 20 µM [2, 4] [%] | inhibition at 20 µM (KRas Q61H mutant; [5]) [%] | inhibition at 20 µM [1, 6] [%] | inhibition at 20 µM [2, 7] [%] | inhibition at 20 µM (KRas Q61H mutant; [8]) [%] | IC50 [2] [µM]
21 | Cc1ccc(-c2cc3nc(-c4ccccn4)nc(O)c3s2)cc1 [drawing 3555] |  |  |  | 1 to 25 | 0 | 0 | 
22 | O=C(c1csc2c(O)nc(-c3ccccn3)nc12)N1CCNC(Cc2cccc(F)c2)C1 (centres unmarked) [drawing 2832] | 51 to 75 | 51 to 75 | 51 to 75 |  |  |  | 
23 | O=C(c1csc2c(O)nc(-c3ccccn3)nc12)N1CCNC(c2ccccc2Cl)C1 (centres unmarked) [drawing 2806] | 51 to 75 | 25 to 50 | 76 to 100 |  |  |  | 
24 | Cc1cc2nc(-c3ccccn3)nc(O)c2s1 [drawing 3472] |  |  |  | 51 to 75 | 51 to 75 | 51 to 75 | 
25 | CCn1nc(C)cc1-c1csc2c(O)nc(-c3ccccn3)nc12 [drawing 2903] | 51 to 75 | 51 to 75 | 51 to 75 |  |  |  | 11 to 30
26 | O=C(c1csc2c(O)nc(-c3ccccn3)nc12)N1CCNC(Cc2ccc(F)cc2)C1 (centres unmarked) [drawing 2831] | 51 to 75 | 51 to 75 | 51 to 75 |  |  |  | 
27 | COc1cccc(CC2CN(C(=O)c3csc4c(O)nc(-c5ccccn5)nc34)CCN2)c1 (centres unmarked) [drawing 2830] | 51 to 75 | 51 to 75 | 51 to 75 |  |  |  | 
28 | Cc1sc2c(O)nc(-c3ccccn3)nc2c1C(=O)O [drawing 3482] |  |  |  | 25 to 50 | 25 to 50 | 25 to 50 | 
29 | COc1cc(OC)cc(N2CCN(C(=O)c3csc4c(O)nc(-c5ccccn5)nc34)CC2)c1 [drawing 2757] | 1 to 25 | 0 | 1 to 25 |  |  |  | 
30 | O=C(c1csc2c(O)nc(-c3ccccn3)nc12)N1CCNC(c2ccc(Cl)cc2)C1 (centres unmarked) [drawing 3525] |  |  |  | 51 to 75 | 25 to 50 | 51 to 75 | 
31 | COc1ccc(CCNC(=O)c2csc3nc(-c4ccccn4)nc(N4CCS(=O)(=O)CC4)c23)cn1 [drawing 2853] | 25 to 50 | 25 to 50 | 25 to 50 |  |  |  | 
32 | COCCCCNC(=O)c1csc2nc(-c3ccccn3)nc(N3CCOCC3)c12 [drawing 2789] | 1 to 25 | 1 to 25 | 25 to 50 |  |  |  | 
33 | Oc1nc(-c2ccccn2)nc2c(-c3ccc(OC4CCCC4)cc3)csc12 [drawing 2863] | 25 to 50 | 25 to 50 | 25 to 50 |  |  |  | 
34 | COC(=O)c1c(C)sc2c(O)nc(-c3ccccn3)nc12 [drawing 3473] |  |  |  | 51 to 75 | 51 to 75 | 51 to 75 | 
35 | Oc1nc(-c2ccccn2)nc2c(-c3ccc(OC4CCOC4)cc3)csc12 (centres unmarked) [drawing 2862] | 1 to 25 | 25 to 50 | 25 to 50 |  |  |  | 
36 | COCCCCNC(=O)c1csc2nc(-c3ccccn3)nc(N3CCS(=O)(=O)CC3)c12 [drawing 2826] | 1 to 25 | 1 to 25 | 1 to 25 |  |  |  | 
37 | COc1ccc(-c2cc3nc(-c4ccccn4)nc(O)c3s2)cc1 [drawing 3563] |  |  |  | 1 to 25 | 1 to 25 | 1 to 25 | 
38 | Oc1nc(-c2ccccn2)nc2c(-c3cncc(C(F)F)c3)csc12 [drawing 3507] |  |  |  | 1 to 25 | 1 to 25 | 1 to 25 | 
39 | Oc1nc(-c2ccccn2)nc2c(-c3ccc(OC4CCOCC4)cc3)csc12 [drawing 2867] | 25 to 50 | 25 to 50 | 25 to 50 |  |  |  | 
40 | Oc1nc(-c2ccccn2)nc2c(-c3ccc(CN4CCOCC4)cc3)csc12 [drawing 2882] | 25 to 50 | 25 to 50 | 25 to 50 |  |  |  | 
